According to the NIST ThermoML archive (doi:10.1007/s10765-011-0995-x):

How the values were obtained:
[1] = xn = mol fraction of the nth substance listed; conditions: 101 kPa, Liquid; for speed of sound: Pulse-echo method
[2] = refractive index (Na D-line) (dimensionless); xn = mol fraction of the nth substance listed; conditions: 101 kPa, Liquid, Standard Abbe refractometry

Cc1cccc(Cl)c1 [3-chlorotoluene] + CCCCCCCCCCO
Conditions	mass density, [1] [kg/m3]	refractive index, [2]	speed of sound, [1] [m/s]	viscosity, [1] [mPa·s]
298.15 K, x1 = 0.0745	837.98	1.4371	1371.6	10.08
298.15 K, x1 = 0.1337	847.61	1.4394	1364.4	8.723
298.15 K, x1 = 0.2017	859.18	1.4424	1356	7.28
298.15 K, x1 = 0.2741	872.19	1.446	1347	5.927
298.15 K, x1 = 0.3471	886.08	1.4501	1338	4.762
298.15 K, x1 = 0.4139	899.55	1.4545	1329.9	3.862
298.15 K, x1 = 0.4616	909.68	1.4579	1324.3	3.322
298.15 K, x1 = 0.5532	930.44	1.4653	1314.9	2.496
298.15 K, x1 = 0.6282	948.88	1.4723	1308.1	1.985
298.15 K, x1 = 0.6772	961.72	1.4772	1304.1	1.724
298.15 K, x1 = 0.7447	980.55	1.4847	1300	1.429
298.15 K, x1 = 0.8245	1004.78	1.4947	1296.6	1.17
298.15 K, x1 = 0.8876	1025.62	1.5034	1296.2	1.016
298.15 K, x1 = 0.9433	1045.43	1.5117	1297.1	0.906
298.15 K, x1 = 1	1067.29	1.5207	1298.3	0.798
303.15 K, x1 = 0.0745	834.43	1.4353	1355.2	8.289
303.15 K, x1 = 0.1337	844.01	1.4378	1347	7.171
303.15 K, x1 = 0.2017	855.5	1.4408	1337.4	6.013
303.15 K, x1 = 0.2741	868.42	1.4445	1327.4	4.905
303.15 K, x1 = 0.3471	882.21	1.4488	1318	3.977
303.15 K, x1 = 0.4139	895.58	1.4533	1309.9	3.261
303.15 K, x1 = 0.4616	905.65	1.4567	1304.4	2.821
303.15 K, x1 = 0.5532	926.26	1.4641	1295.5	2.161
303.15 K, x1 = 0.6282	944.59	1.4711	1289.3	1.744
303.15 K, x1 = 0.6772	957.36	1.4761	1285.8	1.523
303.15 K, x1 = 0.7447	976.11	1.4835	1281.9	1.282
303.15 K, x1 = 0.8245	1000.26	1.4932	1278.3	1.063
303.15 K, x1 = 0.8876	1021.06	1.5017	1276.7	0.934
303.15 K, x1 = 0.9433	1040.84	1.5099	1276.5	0.844
303.15 K, x1 = 1	1062.81	1.5189	1280.1	0.746
308.15 K, x1 = 0.0745	830.88	1.4334	1335	6.908
308.15 K, x1 = 0.1337	840.4	1.436	1325.8	6.001
308.15 K, x1 = 0.2017	851.82	1.4391	1315.4	5.022
308.15 K, x1 = 0.2741	864.64	1.443	1305	4.123
308.15 K, x1 = 0.3471	878.33	1.4473	1295.4	3.348
308.15 K, x1 = 0.4139	891.6	1.4518	1287.6	2.771
308.15 K, x1 = 0.4616	901.59	1.4553	1282.4	2.423
308.15 K, x1 = 0.5532	922.06	1.4628	1273.9	1.862
308.15 K, x1 = 0.6282	940.26	1.4697	1268.3	1.521
308.15 K, x1 = 0.6772	952.94	1.4747	1265.4	1.343
308.15 K, x1 = 0.7447	971.61	1.482	1261.9	1.142
308.15 K, x1 = 0.8245	995.7	1.4917	1258.4	0.96
308.15 K, x1 = 0.8876	1016.44	1.5	1257.5	0.851
308.15 K, x1 = 0.9433	1036.25	1.5082	1257.8	0.777
308.15 K, x1 = 1	1058.33	1.5169	1262.1	0.705
